The text below walks through data of US11427552B2, “Heterocyclic compounds useful in the treatment of disease” (EPIGEN BIOSCIENCES, INC., priority 2013, dated 2022).

pIC50: −log10 of the molar value.

For this assay, the target named is T1, LPA1R (Homo sapiens, UniProt Q92633).
T1 construct: host or cells: LPA1R expressing cells (Millipore, GPCR Profiler)
T1 sequence (Q92633 whole entry): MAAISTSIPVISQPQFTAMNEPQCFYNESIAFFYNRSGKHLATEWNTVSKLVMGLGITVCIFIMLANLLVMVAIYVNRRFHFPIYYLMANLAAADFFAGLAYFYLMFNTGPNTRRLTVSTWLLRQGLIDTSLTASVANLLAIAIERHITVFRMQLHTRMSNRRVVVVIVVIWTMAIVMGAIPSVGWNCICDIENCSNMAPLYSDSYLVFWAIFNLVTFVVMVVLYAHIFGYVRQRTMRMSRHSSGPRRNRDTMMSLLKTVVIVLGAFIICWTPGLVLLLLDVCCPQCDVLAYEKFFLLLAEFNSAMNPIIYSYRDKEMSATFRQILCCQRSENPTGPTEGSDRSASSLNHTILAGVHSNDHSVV
The assay can be described thus: LPA1R Ca2+ flux functional assay (antagonist mode, FLIPR). It is filed as cell-based. The settings on record: inhibition of LPA-stimulated Ca2+ flux, LPA at EC80, LPA1R expressing cells (Millipore); read-out: LPA1 R Antagonist Activity. As to the method:
Inhibition of LPA-stimulated Ca^2+ flux was used to assess compound potency using FLIPR technology in a 96 well plate format. The assay buffer used was a modified Hanks Balanced Salt Solution (HBSS) where HBSS was supplemented to contain 20 mM HEPES and 2.5 mM Probenecid at pH7.4 (Millipore, GPCR Profiler®). LPA1R expressing cells (Millipore) were plated and prepared 24 hours prior to assay of test articles. Ca^2+ ion flux was assessed from fluorescence of a Fluo-based No Wash Ca^2+ dye. Antagonist data are generated from plates with LPA concentrations sufficient to generate 80% efficacy [EC80]. Percentage inhibition was calculated from a reduction of efficacy according to concentration of compounds of Formula I-VI. For dose responses the inhibition data was used to calculate compound IC50. The agonist assay was conducted on a FLIPR^TETRA instrument where the test compound(s), vehicle controls, and reference agonist were added to the assay plate after a fluorescence baseline was established. The agonist assay was a total of 180 seconds and was used to assess each compound's ability to activate each GPCR assayed. Upon completion of the agonist assay, the assay plate was removed from the FLIPR^TETRA and incubated at 25° C. for seven (7) minutes. After the incubation period, the assay plate was placed back in the FLIPR^TETRA and the antagonist assay was initiated. Using EC80 potency values determined during the agonist assay, all pre-incubated sample compound wells were challenged with EC80 concentration of reference agonist after establishment of a fluorescence baseline. The antagonist assay was conducted using the same assay plate that was used for the agonist assay. The antagonist assay was conducted on a FLIPR^TETRA instrument where 9 vehicle controls and EC80 concentration of reference agonist were added to appropriate wells. The antagonist assay was a total of 180 seconds and was used to assess each compound's ability to inhibit each GPCR assayed. All assay plate data were subjected to appropriate baseline corrections. After baseline corrections were applied, maximum fluorescence values were exported and data processed to calculate percentage activation (relative to Emax reference agonist and vehicle control values), percentage inhibition (relative to EC80 and vehicle control values), and additional statistical values (i.e. Z′, percentage variation between replicate data values) to assess the quality of each plate. Where assay plate data were rejected, additional experiments were conducted. All dose response curves were generated using GraphPad Prism. The curves were fit by utilizing “Sigmoidal Dose Response (Variable Slope)” equation where the bottom parameter was fixed to “0.” Where appropriate, the top parameter was fixed to “100” to better predict potency values when a full curve was not generated by the concentrations assayed.
Background: Calcium assays in cells follow changes in intracellular calcium, usually with a dye or a luminescent sensor.
With `Cc1noc(-c2ccc(C(=O)N[C@H](C(=O)O)c3ccccc3)cc2)c1NC(=O)OC(C)c1ccccc1Cl` (mixture of isomers) [Example 3, 2-(S)-(4-{4-[(R,S)-1-(2-Chloro-phenyl)-ethoxycarbonylamino]-3-methyl-isoxazol-5-yl}-benzoylamino) Phenyl Acetic Acid], the pIC50 is less than 4.30.
As to `Cc1noc(-c2ccc(COC(CC3CC3)C(=O)O)cc2)c1NC(=O)O[C@H](C)c1ccccc1` (mixture of isomers) [Example 44, (RS)-3-Cyclopropyl-2-{4-[3-methyl-4-((R)-1-phenyl-ethoxycarbonylamino)-isoxazol-5-yl]-benzyloxy}-propionic Acid], the pIC50 was more than 6.52.
On to `Cc1noc(-c2ccc(COC(Cc3ccc(Cl)cc3)C(=O)O)cc2)c1OC(=O)O[C@H](C)c1ccccc1` (mixture of isomers) [Example 45, (RS)-3-(4-Chloro-phenyl)-2-{4-[3-methyl-4-((R)-1-phenyl-ethoxycarbonyloxy)-isoxazol-5-yl]-benzyloxy}-propionic Acid], for which the pIC50 was more than 6.52.
`Cc1noc(-c2ccc(C(=O)NC3(C(=O)O)CC3)cc2)c1NC(=O)OC(C)c1ccccc1Cl` (stereo not drawn) [Example 1, 1-(4-{4-[1-(2-Chloro-phenyl)-ethoxycarbonylamino]-3-methyl-isoxazol-5-yl}-benzoylamino)-cyclopropanecarboxylic Acid]: the pIC50 is 4.30 to 6.00.
To `Cc1noc(-c2ccc(C(=O)NC3(C(=O)O)Cc4ccccc4C3)cc2)c1NC(=O)OC(C)c1ccccc1Cl` (stereo not drawn) [Example 2, 2-(4-{4-[1-(2-Chloro-phenyl)-ethoxycarbonylamino]-3-methyl-isoxazol-5-yl}-benzoylamino)-indan-2-carboxylic Acid] belongs 4.30 to 6.00.
To `Cc1noc(-c2ccc(C(=O)NC(Cc3ccccc3)C(=O)O)cc2)c1NC(=O)OC(C)c1ccccc1Cl` [Example 4, 2-(R)-(4-{4-[(R,S)-1-(2-Chloro-phenyl)-ethoxycarbonylamino]-3-methyl-isoxazol-5-yl}-benzoylamino) Phenyl Propanoic Acid] belongs 6.00 to 6.52; to `Cc1noc(-c2ccc(C(=O)N[C@H](Cc3ccccc3)C(=O)O)cc2)c1NC(=O)O[C@H](C)c1ccccc1` [Example 5, 2(R)-[[4-[3-methyl-4-((R)-1-phenylethoxycarbonylamino)isoxazol-5-yl]benzoyl]amino]-3-phenyl-propanoic Acid], more than 6.52; to `Cc1noc(-c2ccc(C(=O)N[C@@H](Cc3ccccc3)C(=O)O)cc2)c1NC(=O)O[C@H](C)c1ccccc1` [Example 6, 2(S)-[[4-[3-methyl-4-((R)-1-phenylethoxycarbonylamino)isoxazol-5-yl]benzoyl]amino]-3-phenyl-propanoic Acid], less than 4.30.
To `Cc1nn(C)c(-c2ccc(C(=O)N[C@H](Cc3ccccc3)C(=O)O)cc2)c1NC(=O)O[C@H](C)c1ccccc1` [Example 7, (R)-2-[[4-[2,5-dimethyl-4-((R)-1-phenylethoxycarbonylamino)pyrazol-3-yl]benzoyl]amino]-3-phenyl-propanoic Acid] belongs less than 4.30; to `Cc1c(NC(=O)O[C@H](C)c2ccccc2)c(-c2ccc(C(=O)N[C@H](Cc3ccccc3)C(=O)O)cc2)nn1C` [Example 8, (R)-2-[[4-[1,5-dimethyl-4-((R)-1-phenylethoxycarbonylamino)pyrazol-3-yl]benzoyl]amino]-3-phenyl-propanoic Acid], less than 4.30.
In the case of `Cc1nn(C)c(-c2ccc(C(=O)N[C@H](Cc3ccc(F)cc3)C(=O)O)cc2)c1NC(=O)O[C@H](C)c1ccccc1` [Example 9, (R)-2-[[4-[2,5-dimethyl-4-((R)-1-phenylethoxycarbonylamino)pyrazol-3-yl]benzoyl]amino]-3-(4-fluorophenyl)propanoic Acid], the pIC50 is less than 4.30.
To `Cc1c(NC(=O)O[C@H](C)c2ccccc2)c(-c2ccc(C(=O)N[C@H](Cc3ccc(F)cc3)C(=O)O)cc2)nn1C` [Example 10, (R)-2-[[4-[1,5-dimethyl-4-((R)-1-phenylethoxycarbonylamino)pyrazol-3-yl]benzoyl]amino]-3-(4-fluorophenyl)propanoic acid] belongs less than 4.30; to `Cc1nn(C)c(-c2ccc(C(=O)N[C@H](Cc3ccc(Br)cc3)C(=O)O)cc2)c1NC(=O)O[C@H](C)c1ccccc1` [Example 11, (R)-3-(4-bromophenyl)-2-[[4-[2,5-dimethyl-4-((R)-1-phenylethoxycarbonyl-amino)pyrazol-3-yl]benzoyl]amino]propanoic Acid], less than 4.30; to `Cc1nn(C)c(-c2ccc(C(=O)N[C@H](Cc3ccc(Cl)cc3)C(=O)O)cc2)c1NC(=O)O[C@H](C)c1ccccc1` [Example 13, (R)-3-(4-chlorophenyl)-2-[[4-[2,5-dimethyl-4-((R)-1-phenylethoxycarbonyl-amino)pyrazol-3-yl]benzoyl]amino]propanoic Acid], less than 4.30.
To `Cc1c(NC(=O)O[C@H](C)c2ccccc2)c(-c2ccc(C(=O)N[C@H](Cc3ccc(Cl)cc3)C(=O)O)cc2)nn1C` [Example 14, (R)-3-(4-chlorophenyl)-2-[[4-[1,5-dimethyl-4-((R)-1-phenylethoxycarbonyl-amino)pyrazol-3-yl]benzoyl]amino]propanoic Acid] belongs less than 4.30; to `Cc1nn(C)c(-c2ccc(C(=O)N[C@H](Cc3ccc(F)c(F)c3)C(=O)O)cc2)c1NC(=O)O[C@H](C)c1ccccc1` [Example 15, (R)-3-(3,4-difluorophenyl)-2-[[4-[2,5-dimethyl-4-((R)-1-phenylethoxycarbonyl-amino)pyrazol-3-yl]benzoyl]amino]propanoic Acid], less than 4.30; to `Cc1c(NC(=O)O[C@H](C)c2ccccc2)c(-c2ccc(C(=O)N[C@H](Cc3ccc(F)c(F)c3)C(=O)O)cc2)nn1C` [Example 16, (R)-3-(3,4-difluorophenyl)-2-[[4-[1,5-dimethyl-4-((R)-1-phenylethoxycarbonyl-amino)pyrazol-3-yl]benzoyl]amino]propanoic Acid], less than 4.30.
Take `Cc1noc(-c2ccc(C(=O)N[C@H](CC3CC3)C(=O)O)cc2)c1NC(=O)O[C@H](C)c1ccccc1Cl` [Example 17, (R)-2-(4-{4-[(R)-1-(2-chloro-phenyl)-ethoxycarbonylamino]-3-methyl-isoxazol-5-yl}-benzoylamino)-3-cyclopropyl-propionic Acid]: the pIC50 is more than 6.52.
To `Cc1noc(-c2ccc(C(=O)N[C@H](Cc3ccccc3)C(=O)O)cc2)c1NC(=O)O[C@@H](C)c1ccccc1` [Example 18, (R)-2-{4-[3-Methyl-4-((S)-1-phenyl-ethoxycarbonylamino)-isoxazol-5-yl]-benzoylamino}-3-phenyl-propionic Acid] belongs less than 4.30; to `Cc1noc(-c2ccc(C(=O)N[C@@H](Cc3ccccc3)C(=O)O)cc2)c1NC(=O)O[C@@H](C)c1ccccc1` [Example 19, (S)-2-{4-[3-Methyl-4-((S)-1-phenyl-ethoxycarbonylamino)-isoxazol-5-yl]-benzoylamino}-3-phenyl-propionic Acid], less than 4.30; to `Cc1noc(-c2ccc(C(=O)N[C@H](Cc3ccc(F)cc3)C(=O)O)cc2)c1NC(=O)O[C@H](C)c1ccccc1Cl` [Example 21, (R)-2-(4-{4-[(R)-1-(2-Chloro-phenyl)-ethoxycarbonylamino]-3-methyl-isoxazol-5-yl}-benzoylamino)-3-(4-fluoro-phenyl)-propionic Acid], more than 6.52.
Take `Cc1noc(-c2ccc(C(=O)N[C@H](Cc3ccc(Cl)cc3)C(=O)O)cc2)c1NC(=O)O[C@H](C)c1ccccc1Cl` [Example 22, (R)-3-(4-Chloro-phenyl)-2-(4-{4-[(R)-1-(2-chloro-phenyl)-ethoxycarbonylamino]-3-methyl-isoxazol-5-yl}-benzoylamino)-propionic Acid]: the pIC50 was more than 6.52.
Under `Cc1noc(-c2ccc(C(=O)N[C@H](Cc3ccc(F)c(F)c3)C(=O)O)cc2)c1NC(=O)O[C@H](C)c1ccccc1Cl` [Example 23, (R)-2-(4-{4-[(R)-1-(2-Chloro-phenyl)-ethoxycarbonylamino]-3-methyl-isoxazol-5-yl}-benzoylamino)-3-(3,4-difluoro-phenyl)-propionic Acid] stands more than 6.52; under `Cc1noc(-c2ccc(C(=O)N[C@H](Cc3ccccc3Cl)C(=O)O)cc2)c1NC(=O)O[C@H](C)c1ccccc1Cl` [Example 24, (R)-3-(2-Chloro-phenyl)-2-(4-{4-[(R)-1-(2-chloro-phenyl)-ethoxycarbonylamino]-3-methyl-isoxazol-5-yl}-benzoylamino)-propionic Acid], more than 6.52.
